Molecular target: T1, yeast channel-forming VDAC isoform (YVDAC1) (Saccharomyces cerevisiae, UniProt P04840)
T1 construct: gene POR1; native protein from detergent (NP-40) extract of mitochondrial fraction; about 30 kDa; identified by LC/MS/MS against SGD ORF translations
T1 sequence (P04840 2-283): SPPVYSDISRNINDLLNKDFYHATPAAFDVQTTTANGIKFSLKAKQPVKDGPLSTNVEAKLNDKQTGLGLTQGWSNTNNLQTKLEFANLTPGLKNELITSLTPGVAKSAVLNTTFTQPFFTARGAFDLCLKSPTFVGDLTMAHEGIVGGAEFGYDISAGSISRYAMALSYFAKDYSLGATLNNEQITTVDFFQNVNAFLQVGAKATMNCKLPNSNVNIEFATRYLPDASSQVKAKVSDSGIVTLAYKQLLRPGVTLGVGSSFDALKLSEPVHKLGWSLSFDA
Type: biochemical

Compound: COc1cc2c(cc1OC)OC(C)(C)C=C2 [Precocene II]
- affinity magnetic beads, elution and competition with free compound, SDS-PAGE, L: identification of YVDAC1 as the precocene II-binding protein in the yeast S. cerevisiae

Source: PMC4527739 (PLoS ONE, 2015)
